The values below come from patent US20080051418A1, “Arylalkanoic Acid Derivative” (priority 2004, published 2008).

Series [1] deals with T1, PPARγ-RXRα heterodimer (Homo sapiens, UniProt P37231).
T1 construct: expressed in transfected cells; host or cells: CHO-K1
T1 sequence (P37231 1-505): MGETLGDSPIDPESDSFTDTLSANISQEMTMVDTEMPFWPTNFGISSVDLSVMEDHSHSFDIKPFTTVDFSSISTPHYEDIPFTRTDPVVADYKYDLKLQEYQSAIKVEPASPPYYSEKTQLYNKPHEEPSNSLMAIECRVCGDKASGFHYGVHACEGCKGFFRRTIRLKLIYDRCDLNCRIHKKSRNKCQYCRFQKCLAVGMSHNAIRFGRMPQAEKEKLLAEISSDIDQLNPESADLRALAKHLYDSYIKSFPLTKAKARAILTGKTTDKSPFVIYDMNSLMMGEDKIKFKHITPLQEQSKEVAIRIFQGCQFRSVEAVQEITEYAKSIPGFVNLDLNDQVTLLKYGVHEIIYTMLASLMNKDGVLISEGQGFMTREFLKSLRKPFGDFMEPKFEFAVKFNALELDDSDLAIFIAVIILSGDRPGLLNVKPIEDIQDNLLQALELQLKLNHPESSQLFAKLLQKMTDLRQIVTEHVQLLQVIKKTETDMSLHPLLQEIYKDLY
T1 sequence (P19793 1-462 partner): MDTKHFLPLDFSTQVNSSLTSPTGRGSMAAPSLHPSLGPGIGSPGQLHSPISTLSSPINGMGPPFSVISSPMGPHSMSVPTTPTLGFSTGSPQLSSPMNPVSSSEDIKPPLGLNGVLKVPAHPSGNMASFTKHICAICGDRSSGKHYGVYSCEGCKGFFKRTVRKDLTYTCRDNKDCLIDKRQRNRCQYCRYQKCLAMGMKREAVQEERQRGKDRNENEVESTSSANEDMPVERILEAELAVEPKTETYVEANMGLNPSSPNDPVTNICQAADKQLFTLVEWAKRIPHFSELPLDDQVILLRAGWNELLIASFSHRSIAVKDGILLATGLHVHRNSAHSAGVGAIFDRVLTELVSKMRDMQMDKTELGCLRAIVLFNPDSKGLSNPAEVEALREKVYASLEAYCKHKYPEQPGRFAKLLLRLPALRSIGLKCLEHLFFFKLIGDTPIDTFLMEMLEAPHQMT
Put plainly: PPARγ-RXRα heterodimer ligand activity (luciferase reporter). In kind it is cell-based. To be noted: PPARγ:RXRα:4ERPP/CHO-K1 cells, 18-24 hr, concentration showing 50% of the maximum induction rate. As to the method: The PPARγ:RXRα:4ERPP/CHO-K1 cells described in WO03/099793 were cultured in a Ham F12 medium [manufactured by Life Technologies, Inc., US] containing 10% calf fetal serum [manufactured by Life Technologies, Inc., US], sown in a 96-well white plate [manufactured by Corning Coster Corporation, US] at 2×10^4 cells/well, and incubated overnight in a carbon dioxide gas incubator at 37° C.
Then, the medium was removed from the 96 well white plate, 80 μl of Ham F12 medium containing 0.1% fatty acid-free bovine serum albumin (BSA) and a test compound (20 μl) were added, and the cells were incubated for 18-24 hr in a carbon dioxide gas incubator at 37° C. The medium was removed, 40 μl of PicaGene 7.5 (manufactured by Wako Pure Chemical Industries, Ltd.) diluted 2-fold with HBSS (HANKS' BALANCED SALT SOLUTION) [manufactured by BIO WHITTAKER, US] was added. After stirring, the luciferase activity was determined using the 1420 ARVO Multilabel Counter [manufactured by PerkinElmer, US].
(§1) The induction rate was calculated from the luciferase activity of each test compound based on the luciferase activity of the test compound non-administration group as 1. The test compound concentration and the induction rate were analyzed by PRISM [manufactured by GraphPad Software, Inc., US] to calculate EC50 value (compound concentration showing 50% of the maximum value of induction rate) of the test compound.

In series [2] the target is T2, PPARδ-RXRα heterodimer (Homo sapiens, UniProt Q03181).
T2 construct: expressed in transfected cells
T2 sequence (Q03181 1-441): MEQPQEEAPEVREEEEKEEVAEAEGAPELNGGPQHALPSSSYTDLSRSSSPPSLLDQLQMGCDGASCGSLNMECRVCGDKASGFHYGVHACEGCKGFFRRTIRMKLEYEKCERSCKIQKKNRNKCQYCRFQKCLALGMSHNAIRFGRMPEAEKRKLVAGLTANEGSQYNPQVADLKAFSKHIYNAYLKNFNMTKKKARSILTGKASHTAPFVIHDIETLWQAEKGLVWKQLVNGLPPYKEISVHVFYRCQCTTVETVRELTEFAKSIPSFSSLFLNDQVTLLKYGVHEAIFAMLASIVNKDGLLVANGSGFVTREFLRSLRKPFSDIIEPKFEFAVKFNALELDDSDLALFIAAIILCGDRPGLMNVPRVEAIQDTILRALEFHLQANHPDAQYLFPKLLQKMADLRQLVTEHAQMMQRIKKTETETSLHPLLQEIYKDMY
T2 sequence (P19793 1-462 partner): T1 sequence (P19793 1-462 partner)
In words: PPARδ-RXRα heterodimer ligand activity (luciferase reporter). It counts as cell-based. The following applies: transformant of Reference Example 9a of WO03/099793, 36-48 hr, concentration showing 50% of the maximum induction rate. As to the method:
The transformant described in Reference Example 9a of WO03/099793 was suspended in a DMEM medium [manufactured by Life technologies, Inc., US] containing 0.1% fatty acid-free bovine serum albumin (BSA) (manufactured by Wako Pure Chemical Industries, Ltd.), and inoculated to each well of a 96 well white plate [manufactured by Corning Coster Corporation, US] by 80 μl to 1×10^4 cells/well. Then, the test compound (20 μl) was added, and cultured under the conditions of 37° C., 5% CO2 for 36-48 hr. The medium was removed from the 96 well white plate, 40 μl of PicaGene LT 7.5 (manufactured by Wako Pure Chemical Industries, Ltd.) diluted 2-fold with HBSS (HANKS' BALANCED SALT SOLUTION) [manufactured by BIO WHITTAKER, US] was added and, after stirring, the luciferase activity was determined using the 1420 ARVO Multilabel Counter [manufactured by PerkinElmer, US].
as §1

Broadly, the EC50 is the midpoint of the concentration-response curve. Read a high EC50 as a need for much substance. One may read the melting point as the temperature of the solid-liquid transition. As to `CC(C)Oc1cc(CCCOc2cc(CCC(=O)O)n(-c3ccccc3)n2)cc(COc2ccc(Cl)cc2Cl)c1` [Example 196, 3-[3-(3-{3-[(2,4-dichlorophenoxy)methyl]-5-isopropoxyphenyl}propoxy)-1-phenyl-1H-pyrazol-5-yl]propanoic acid], the melting point was in the range of 104 to 106 °C. In addition, a half-maximal response in series [1] (EC50) required 16 nM. In series [2], the EC50 is 11 nM.

With `COc1cccc(CC(=O)O)c1OCCCc1cc(OC(C)C)nn1Cc1ccc(Cl)cc1C` [Example 68, (2-{3-[1-(4-chloro-2-methylbenzyl)-3-isopropoxy-1H-pyrazol-5-yl]propoxy}-3-methoxyphenyl)acetic acid], the melting point lay in the range of 108 to 109 °C. In series [1], the EC50 worked out at 6 nM. For the same compound, in series [2], the EC50 was determined as 74 nM. As to `CC(C)Oc1ccc(CCCCOc2cc(CCC(=O)O)n(-c3ccccc3)n2)c(Oc2ncc(C(F)(F)F)cc2Cl)c1` [Example 156, 3-{3-[4-(2-{[3-chloro-5-(trifluoromethyl)pyridin-2-yl]oxy}-4-isopropoxyphenyl)butoxy]-1-phenyl-1H-pyrazol-5-yl}propanoic acid], the melting point is 75 to 77 °C. Besides, the EC50 in series [1] was found to be 0.99 nM. In series [2], this compound returned an EC50 of 3.4 nM. Compound `COCOc1ccc(CCCOc2nn(Cc3ccccc3)cc2CC(=O)O)c(Oc2ncc(C(F)(F)F)cc2Cl)c1` [Example 112, (3-{3-[2-{[3-chloro-5-(trifluoromethyl)pyridin-2-yl]oxy}-4-(methoxymethoxy)phenyl]propoxy}-1-benzyl-1H-pyrazol-4-yl)acetic acid] returned a melting point of 108 to 109 °C. Moreover, in series [1], the EC50 turned out to be 0.57 nM. In addition, in series [2], the midpoint of the response, the EC50, lay at 57 nM. `CC(C)Oc1ccc(CCCOc2ncccc2CC(=O)O)c(Oc2ncc(Cl)cc2Cl)c1` [Example 121, [2-(3-{2-[(3,5-dichloropyridin-2-yl)oxy]-4-isopropoxyphenyl}propoxy)pyridin-3-yl]acetic acid] had a melting point of 84 to 85 °C. Besides, in series [1], a half-maximal response (EC50) required 3.3 nM. This compound also displayed an EC50 in series [2] of 7.6 nM.

In the case of `COc1cccc(CC(=O)O)c1OCCCc1ccc(OC(C)C)cc1Oc1ncc(C(F)(F)F)cc1Cl` [Example 115, {2-[3-(2-{[3-chloro-5-(trifluoromethyl)pyridin-2-yl]oxy}-4-isopropoxyphenyl)propoxy]-3-methoxyphenyl}acetic acid], in series [2], it took 2.5 nM to reach a half-maximal effect (EC50). In series [2], `CCCOc1ccc(CCCOc2nn(Cc3ccccc3)cc2CC(=O)O)c(Oc2ncc(C(F)(F)F)cc2Cl)c1` [Example 114, {3-[3-(2-{[3-chloro-5-(trifluoromethyl)pyridin-2-yl]oxy}-4-propoxyphenyl)propoxy]-1-benzyl-1H-pyrazol-4-yl}acetic acid] registered an EC50 of 25 nM. The compound `CCCOc1ccc(CCCOc2nn(C)cc2CC(=O)O)c(Oc2ncc(C(F)(F)F)cc2Cl)c1` [Example 113, {3-[3-(2-{[3-chloro-5-(trifluoromethyl)pyridin-2-yl]oxy}-4-propoxyphenyl)propoxy]-1-methyl-1H-pyrazol-4-yl}acetic acid] gave an EC50 in series [2] of 44 nM. As to `COc1cccc(CC(=O)O)c1OCCCc1ccc(Oc2ccc(C(F)(F)F)cn2)cc1OC(C)C` [Example 101, {2-[3-(2-isopropoxy-4-{[5-(trifluoromethyl)pyridin-2-yl]oxy}phenyl)propoxy]-3-methoxyphenyl}acetic acid], in series [2], the EC50 was 44 nM.

As for `CC(C)Oc1ccc(CCCOc2nn(Cc3ccccc3)cc2CC(=O)O)c(Oc2ncc(C(F)(F)F)cc2Cl)c1` [Example 118, {3-[3-(2-{[3-chloro-5-(trifluoromethyl)pyridin-2-yl]oxy}-4-isopropoxyphenyl)propoxy]-1-benzyl-1H-pyrazol-4-yl}acetic acid], the EC50 in series [1] is 0.75 nM; in series [2], 9.2 nM. In the case of `COc1cccc(CC(=O)O)c1OCCCc1cc(OC(C)C)nn1Cc1ccc(Cl)cc1OC(C)C` [Example 70, (2-{3-[1-(4-chloro-2-isopropoxybenzyl)-3-isopropoxy-1H-pyrazol-5-yl]propoxy}-3-methoxyphenyl)acetic acid], the EC50 in series [2] was 60 nM. In the case of `COc1cccc(CC(=O)O)c1OCCCc1ccc(OC(C)C)cc1Oc1ncc(Cl)cc1Cl` [Example 119, [2-(3-{2-[(3,5-dichloropyridin-2-yl)oxy]-4-isopropoxyphenyl}propoxy)-3-methoxyphenyl]acetic acid], the melting point fell in the range of 92 to 93 °C. For the same compound, the EC50 in series [2] stood at 39 nM.

`CC(C)Oc1ccc(CCCOc2cc(CCC(=O)O)n(-c3ccccc3)n2)c(Oc2ncc(Cl)cc2Cl)c1` [Example 138, 3-[3-(3-{2-[(3,5-dichloropyridin-2-yl)oxy]-4-isopropoxyphenyl}propoxy)-1-phenyl-1H-pyrazol-5-yl]propanoic acid]: the figures for the EC50 in series [1] and in series [2] were 1.2 nM and 4 nM, respectively. For `CCCOc1cc(Oc2ccc(C(F)(F)F)cn2)ccc1CCCOc1c(CC(=O)O)cccc1OC` [Example 102, {2-[3-(2-propoxy-4-{[5-(trifluoromethyl)pyridin-2-yl]oxy}phenyl)propoxy]-3-methoxyphenyl}acetic acid], it took 54 nM to reach a half-maximal effect in series [2] (EC50). For `CCn1cc(CC(=O)O)c(OCCCc2ccc(OC(C)C)cc2Oc2ncc(Cl)cc2Cl)n1` [Example 120, [3-(3-{2-[(3,5-dichloropyridin-2-yl)oxy]-4-isopropoxyphenyl}propoxy)-1-ethyl-1H-pyrazol-4-yl]acetic acid], the EC50 in series [1] turned out to be 3.3 nM; in series [2] it was 23 nM.

With `CC(C)Oc1ccc(CCCOc2nn(C)cc2CC(=O)O)c(Oc2ncc(Cl)cc2Cl)c1` [Example 132, [3-(3-{2-[(3,5-dichloropyridin-2-yl)oxy]-4-isopropoxyphenyl}propoxy)-1-methyl-1H-pyrazol-4-yl]acetic acid], the EC50 in series [1] is 11 nM; in series [2], 88 nM.

In the case of `CC(C)Oc1ccc(CCCOc2nn(C)cc2CC(=O)O)c(Oc2ncc(C(F)(F)F)cc2Cl)c1` [Example 116, {3-[3-(2-{[3-chloro-5-(trifluoromethyl)pyridin-2-yl]oxy}-4-isopropoxyphenyl)propoxy]-1-methyl-1H-pyrazol-4-yl}acetic acid], the EC50 was 1.6 nM in series [1] and 9.3 nM in series [2].
